# Measurements: PubChem BioAssay (NCI)
#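 Interpolation was linear, between the two tested concentrations surrounding the appropriate level; five concentrations were tested over 48 hours in 96-well plates. At the GI50, growth is halved. TGI: concentration producing complete growth inhibition.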
# Tests used:
# Experiment in all cases: NCI tumour cell line growth inhibition, 48 h
# 786-0 renal = tested on: 786-0 renal
# A498 renal = tested on: A498 renal
# A549 NSCLC = tested on: A549 NSCLC
# ACHN renal = tested on: ACHN renal
# BT-549 breast = tested on: BT-549 breast
# CAKI-1 renal = tested on: CAKI-1 renal
# CCRF-CEM leukemia = tested on: CCRF-CEM leukemia
# COLO 205 colon = tested on: COLO 205 colon
# DU-145 prostate = tested on: DU-145 prostate
# EKVX NSCLC = tested on: EKVX NSCLC
# HCC-2998 colon = tested on: HCC-2998 colon
# HCT-116 colon = tested on: HCT-116 colon
# HCT-15 colon = tested on: HCT-15 colon
# HL-60(TB) leukemia = tested on: HL-60(TB) leukemia
# HOP-62 NSCLC = tested on: HOP-62 NSCLC
# HS 578T breast = tested on: HS 578T breast
# HT29 colon = tested on: HT29 colon
# IGROV1 ovarian = tested on: IGROV1 ovarian
# K-562 leukemia = tested on: K-562 leukemia
# KM12 colon = tested on: KM12 colon
# LOX IMVI melanoma = tested on: LOX IMVI melanoma
# M14 melanoma = tested on: M14 melanoma
# MALME-3M melanoma = tested on: MALME-3M melanoma
# MCF7 breast = tested on: MCF7 breast
# MDA-MB-231 breast = tested on: MDA-MB-231 breast
# MDA-MB-435 = tested on: MDA-MB-435
# MOLT-4 leukemia = tested on: MOLT-4 leukemia
# NCI-H226 lung = tested on: NCI-H226 lung
# NCI-H23 lung = tested on: NCI-H23 lung
# NCI-H460 lung = tested on: NCI-H460 lung
# NCI-H522 lung = tested on: NCI-H522 lung
# NCI/ADR-RES ovarian = tested on: NCI/ADR-RES ovarian
# OVCAR-3 ovarian = tested on: OVCAR-3 ovarian
# OVCAR-4 ovarian = tested on: OVCAR-4 ovarian
# OVCAR-5 ovarian = tested on: OVCAR-5 ovarian
# OVCAR-8 ovarian = tested on: OVCAR-8 ovarian
# PC-3 prostate = tested on: PC-3 prostate
# RPMI-8226 leukemia = tested on: RPMI-8226 leukemia
# RXF 393 renal = tested on: RXF 393 renal
# SF-268 CNS = tested on: SF-268 CNS
# SF-295 CNS = tested on: SF-295 CNS
# SF-539 CNS = tested on: SF-539 CNS
# SK-MEL-2 melanoma = tested on: SK-MEL-2 melanoma
# SK-MEL-28 melanoma = tested on: SK-MEL-28 melanoma
# SK-MEL-5 melanoma = tested on: SK-MEL-5 melanoma
# SK-OV-3 ovarian = tested on: SK-OV-3 ovarian
# SN12C renal = tested on: SN12C renal
# SNB-19 CNS = tested on: SNB-19 CNS
# SNB-75 CNS = tested on: SNB-75 CNS
# SR leukemia = tested on: SR leukemia
# SW-620 colon = tested on: SW-620 colon
# T-47D breast = tested on: T-47D breast
# TK-10 renal = tested on: TK-10 renal
# U251 CNS = tested on: U251 CNS
# UACC-257 melanoma = tested on: UACC-257 melanoma
# UACC-62 melanoma = tested on: UACC-62 melanoma
# UO-31 renal = tested on: UO-31 renal
structure (smiles),measurement,setting,value
NS(=O)(=O)c1ccc(N=Nc2c(=O)[nH]c3ccc4[nH]cccc4c23)cc1,GI50,786-0 renal,577 nM
same,TGI,786-0 renal,> 25000 nM
same,GI50,A498 renal,671 nM
same,TGI,A498 renal,1450 nM
same,GI50,A549 NSCLC,1890 nM
same,TGI,A549 NSCLC,> 25000 nM
same,GI50,ACHN renal,694 nM
same,TGI,ACHN renal,> 25000 nM
same,GI50,BT-549 breast,498 nM
same,TGI,BT-549 breast,1720 nM
same,GI50,CAKI-1 renal,4280 nM
same,TGI,CAKI-1 renal,> 25000 nM
same,GI50,CCRF-CEM leukemia,202 nM
same,TGI,CCRF-CEM leukemia,> 25000 nM
same,GI50,COLO 205 colon,376 nM
same,TGI,COLO 205 colon,913 nM
same,GI50,DU-145 prostate,611 nM
same,TGI,DU-145 prostate,> 7960 nM
same,GI50,EKVX NSCLC,2100 nM
same,TGI,EKVX NSCLC,> 25000 nM
same,GI50,HCC-2998 colon,398 nM
same,TGI,HCC-2998 colon,2000 nM
same,GI50,HCT-116 colon,151 nM
same,TGI,HCT-116 colon,> 25000 nM
same,GI50,HCT-15 colon,2120 nM
same,TGI,HCT-15 colon,> 25000 nM
same,GI50,HL-60(TB) leukemia,557 nM
same,TGI,HL-60(TB) leukemia,1530 nM
same,GI50,HOP-62 NSCLC,653 nM
same,TGI,HOP-62 NSCLC,> 25000 nM
same,GI50,HS 578T breast,575 nM
same,TGI,HS 578T breast,> 6850 nM
same,GI50,HT29 colon,875 nM
same,TGI,HT29 colon,> 25000 nM
same,GI50,IGROV1 ovarian,789 nM
same,TGI,IGROV1 ovarian,> 25000 nM
same,GI50,K-562 leukemia,721 nM
same,TGI,K-562 leukemia,> 25000 nM
same,GI50,KM12 colon,792 nM
same,TGI,KM12 colon,4320 nM
same,GI50,LOX IMVI melanoma,304 nM
same,TGI,LOX IMVI melanoma,> 25000 nM
same,GI50,M14 melanoma,820 nM
same,TGI,M14 melanoma,5640 nM
same,GI50,MALME-3M melanoma,1050 nM
same,TGI,MALME-3M melanoma,3050 nM
same,GI50,MCF7 breast,129 nM
same,TGI,MCF7 breast,> 25000 nM
same,GI50,MDA-MB-231 breast,885 nM
same,TGI,MDA-MB-231 breast,> 7890 nM
same,GI50,MDA-MB-435,553 nM
same,TGI,MDA-MB-435,> 25000 nM
same,GI50,MOLT-4 leukemia,632 nM
same,TGI,MOLT-4 leukemia,3310 nM
same,GI50,NCI-H226 lung,317 nM
same,TGI,NCI-H226 lung,3060 nM
same,GI50,NCI-H23 lung,671 nM
same,TGI,NCI-H23 lung,3770 nM
same,GI50,NCI-H460 lung,792 nM
same,TGI,NCI-H460 lung,> 25000 nM
same,GI50,NCI-H522 lung,197 nM
same,TGI,NCI-H522 lung,818 nM
same,GI50,NCI/ADR-RES ovarian,> 15800 nM
same,TGI,NCI/ADR-RES ovarian,> 25000 nM
same,GI50,OVCAR-3 ovarian,375 nM
same,TGI,OVCAR-3 ovarian,1980 nM
same,GI50,OVCAR-4 ovarian,409 nM
same,TGI,OVCAR-4 ovarian,> 6680 nM
same,GI50,OVCAR-5 ovarian,1020 nM
same,TGI,OVCAR-5 ovarian,> 25000 nM
same,GI50,OVCAR-8 ovarian,342 nM
same,TGI,OVCAR-8 ovarian,> 25000 nM
same,GI50,PC-3 prostate,583 nM
same,TGI,PC-3 prostate,> 25000 nM
same,GI50,RPMI-8226 leukemia,1970 nM
same,TGI,RPMI-8226 leukemia,14200 nM
same,GI50,RXF 393 renal,150 nM
same,TGI,RXF 393 renal,449 nM
same,GI50,SF-268 CNS,330 nM
same,TGI,SF-268 CNS,> 5990 nM
same,GI50,SF-295 CNS,883 nM
same,TGI,SF-295 CNS,> 25000 nM
same,GI50,SF-539 CNS,295 nM
same,TGI,SF-539 CNS,1460 nM
same,GI50,SK-MEL-2 melanoma,182 nM
same,TGI,SK-MEL-2 melanoma,696 nM
same,GI50,SK-MEL-28 melanoma,518 nM
same,TGI,SK-MEL-28 melanoma,1640 nM
same,GI50,SK-MEL-5 melanoma,256 nM
same,TGI,SK-MEL-5 melanoma,4690 nM
same,GI50,SK-OV-3 ovarian,1250 nM
same,TGI,SK-OV-3 ovarian,> 25000 nM
same,GI50,SN12C renal,470 nM
same,TGI,SN12C renal,> 25000 nM
same,GI50,SNB-19 CNS,428 nM
same,TGI,SNB-19 CNS,> 25000 nM
same,GI50,SNB-75 CNS,404 nM
same,TGI,SNB-75 CNS,1300 nM
same,GI50,SR leukemia,147 nM
same,TGI,SR leukemia,652 nM
same,GI50,SW-620 colon,356 nM
same,TGI,SW-620 colon,> 7230 nM
same,GI50,T-47D breast,480 nM
same,TGI,T-47D breast,1980 nM
same,GI50,TK-10 renal,699 nM
same,TGI,TK-10 renal,2240 nM
same,GI50,U251 CNS,313 nM
same,TGI,U251 CNS,> 25000 nM
same,GI50,UACC-257 melanoma,828 nM
same,TGI,UACC-257 melanoma,6980 nM
same,GI50,UACC-62 melanoma,487 nM
same,TGI,UACC-62 melanoma,1620 nM
same,GI50,UO-31 renal,1680 nM
same,TGI,UO-31 renal,> 25000 nM
